Tests used:
[1] = tested on: mouse brain; assay: In vivo phage display with CX4CYX library; details: for R1 reads: round 1; for R3 reads: round 3; for R3 > R1 (ratio of sequencing reads between round 3 and round 1): round 3 / round 1
Procedure: In vivo phage display with CX4CYX library was performed in three selection rounds. Phage library was injected intravenously to Balb/c mice and allowed to circulate for one hour. After circulation, the animals were anesthetized and perfused intracardially with acid and detergent buffers. Brain and control organs were collected and homogenized in 1% NP40-LB. Bound phages were rescued by amplification in E. coli and their genomic DNA was sequenced by Ion Torrent next generation DNA sequencing system.
A novel phage library CX4CYX was constructed based on the alanine-leucine screen to find new brain homing peptides). This knowledge directed us to construct a novel phage library CX4CYX (X—any amino acid), where Cys1, Cys6 and Tyr7 remained in their intact positions, and the four amino acid variable-domain laid between the cysteines, and one amino acid variability after Tyr7. Three rounds of phage bio-panning was performed to allow enrichment of peptides in the brain. Again acid and detergent buffers were used for perfusion to remove non-specifically bound phages from the brain after systemic administration of phage library (round 1) and recovered brain phage pools (round 2 and 3). HTS reads from round 1 to round 3 indicated decent enrichment of in-frame peptides in the brain (Table 6).

[2] = tested on: mouse brain; assay: In vivo T7 phage display (biopanning), high throughput sequencing of brain phage; details: for reads associated with each sequence (Ion torrent sequencing): Round 5 of biopanning
Procedure: The in vivo phage screening in male Balb/C mice was performed as described in (Põšnograjeva et al., 2022) with some alterations. To reduce the background of unspecific phages in the brain, 4.5×10^10 pfu of UV-inactivated control insertless T7 phage was injected i.p. 30 min later, CX7C naïve T7 phage library or the phage pool recovered from the brain in the previous round of biopanning was injected i.v. and allowed to circulate for 30 min. The mice were anesthetized and perfused with PBS intracardially. The brain was removed, homogenized in LB-NP40 (1%) and the phages in the lysate were rescued by amplification in semi-solid media in E. coli strain BLT5403. Peptide-encoding portion of the phage genome was sequenced using Ion Torrent high throughput sequencing (HTS). 8 mice were used in the first round of biopanning (R1) to prevent creating a narrow bottleneck of selection in the first round of biopanning. 2 mice were used for all subsequent rounds (R2 . . . . R5). R5 was repeated with the additional step of isolating brain CD31+ cells from CD31− cells by magnetic-activated cell sorting. The mouse brains were dissociated using Dounce tissue grinder and Adult Brain Dissociation Kit (#130-107-677) and CD31+ cells were isolated from all the other brain cells using CD31 MicroBeads (#130-097-418) following the manufacturer's protocol for isolation and cultivation of endothelial cells from adult mouse brain. The cells were lysed in LB-NP40 (1%) and the samples were further processed following the same steps with samples of whole brain.
To identify peptides that accumulate in mouse brain, cross the blood-brain barrier and reach the brain parenchyma cells, in vivo T7 phage display was used. For round 1 of biopanning, naïve CX7C T7 peptide-phage library was injected into mice i.v. The phages accumulated in brain were rescued to be used as input in a subsequent round of biopanning. A consistent increase in the % of injected phage accumulating in the brain tissue through rounds 1 . . . 5 of biopanning was observed (FIG. 1A; To assess the % of injected phage that accumulated in the brain throughout the five rounds of biopanning (R1-R5), Peptide-phages were injected i.v. and following 30 min circulation mice were perfused with PBS. The phages rescued from the brain were reamplified and injected for a subsequent round of biopanning). The 5th round of bio-panning was then repeated with an additional step of isolating CD31+ brain endothelial cells from CD31− brain cells to detect peptides that not only accumulate in the brain, but also penetrate the endothelial cell layer lining the brain blood vessels (FIG. 1B; The total amount of phage rescued from mouse brain CD31+ and CD31− cell fractions after R5 with the additional step of isolating brain endothelial (CD31+) cells from all the other brain cells (parenchyma cells; CD31−)).
A complete listing of peptides that were identified from Ion Torrent high throughput sequencing from bio-panning Round 5 is set forth in Table 1B.

[3] = mouse 325, total reads in sample 135061
[4] = mouse 326, total reads in sample 218048

Row | Substance | R1 reads [1] [reads] | R3 reads [1] [reads] | R3 > R1 (ratio of sequencing reads between round 3 and round 1) [1] | reads associated with each sequence (Ion torrent sequencing) [2, 3] [reads] | reads associated with each sequence (Ion torrent sequencing) [2, 4] [reads] | representation of peptide sequence in brain ([2]; whole brain after round 5, CD31+ and CD31- brain cell fractions)
1 | CACPLCY [CAGPLCY] | 3 | 1232 | 411 |  |  | 
2 | CAGSMCY | 14 | 9077 | 648 |  |  | 
3 | CEGALCY | 17 | 39863 | 2345 |  |  | 
4 | CEGSLCY | 3 | 2833 | 944 |  |  | 
5 | CKGSNCY | 4 | 2037 | 509 |  |  | 
6 | CMGDLCY | 3 | 837 | 279 |  |  | 
7 | CQGALCY | 27 | 8612 | 319 |  |  | 
8 | CQGSNCY | 4 | 1202 | 301 |  |  | 
9 | CTGSLCY | 64 | 43464 | 679 |  |  | 
10 | CTGSMCY | 3 | 841 | 280 |  |  | 
11 | CVCANCY [CVGANCY] | 24 | 7359 | 307 |  |  | 
12 | CVGQLCY | 12 | 5355 | 446 |  |  | 
13 | CVGTLCY | 21 | 11631 | 554 |  |  | 
14 | IMLGDPILASRRVISRAKL |  |  |  | 68 | 116 | 
15 | MIGDANSSS |  |  |  | 2370 | 2197 | 
16 | MIGDPILAGRRIVSRAKLAAALE |  |  |  | 315 | 480 | 
17 | MIGDPILASRRVISR |  |  |  | 77 | 76 | 
18 | MIGDPILASRRVISRAKLAA |  |  |  | 254 | 286 | 
19 | MIGDPNFAIRAVISRAKLAAALE |  |  |  | 543 | 825 | 
20 | MLGDPILASERVISRAKLAAASS |  |  |  | 47 | 169 | 
21 | MLGDPILASRAVISRAKLAAA |  |  |  | 350 | 399 | 

Row | Substance | R1 reads [1] [reads] | R3 reads [1] [reads] | R3 > R1 (ratio of sequencing reads between round 3 and round 1) [1] | reads associated with each sequence (Ion torrent sequencing) [2, 3] [reads] | reads associated with each sequence (Ion torrent sequencing) [2, 4] [reads] | representation of peptide sequence in brain ([2]; whole brain after round 5, CD31+ and CD31- brain cell fractions)
22 | MLGDPILASRAVISRAKLAAALS |  |  |  | 54 | 194 | 
23 | MLGDPILASRAVISRAKLAAHSS |  |  |  | 84 | 142 | 
24 | MLGDPILASRRVISRAK |  |  |  | 67 | 100 | 
25 | MLGDPILASRRVISRAKLA |  |  |  | 150 | 172 | 
26 | MLGDPILASRRVISRAKLAAAFE |  |  |  | 46 | 269 | 
27 | MLGDPILASRRVISRAKLAAAL |  |  |  | 1495 | 2334 | 
28 | MLGDPILASRRVISRAKLAAALD |  |  |  | 34 | 119 | 
29 | MLGDPILASRRVISRAKLAAALE [Pep1] |  |  |  | 80229 | 132268 | most represented peptide sequence in the whole brain after round 5 of bio-panning as well as in CD31+ and CD31− brain cell fractions
30 | MLGDPILASRRVISRAKLAAALG |  |  |  | 33 | 108 | 
31 | MLGDPILASRRVISRAKLAATLE |  |  |  | 39 | 143 | 
32 | MLGDPILASRRVISRAKLAAVLE |  |  |  | 51 | 292 | 
33 | MLGDPILASRRVISRAKLADALE |  |  |  | 142 | 359 | 
34 | MLGDPILASRRVISRAKLEAALE |  |  |  | 129 | 251 | 
35 | MLGDPNIVAKLAAALE |  |  |  | 271 | 368 | 
36 | MLGDPNLARRRVISRAKLAAAL |  |  |  | 89 | 188 | 
37 | MLGDPNLARRRVISRAKLAAALE |  |  |  | 4716 | 8755 | 
38 | MLGDPNS |  |  |  | 57 | 84 | 
39 | MLGDPNSC |  |  |  | 84 | 216 | 
40 | MLGDPNSCTEGTRVTC |  |  |  | 1533 | 2339 | 
41 | MLGDPNSSSVDKLAAALE |  |  |  | 674 | 588 | 
